# From patent US12595504B2, “Methods for screening compounds for bactericidal activity and for determining the sensitivity of bacterial samples” (priority 2020, dated 2026)
# Like-named read-outs stand apart in the source and are kept apart here.
# Legend:
# [1] = Comparative stability assay of classical and thermostable luciferase at 37° C.; assay type: physicochemical
# Description: For performing this assay, a classical luciferase (firefly luciferase; Molecular Probes ATP determination kit A22066) and the thermostable luciferase (Checklite kit, Kikkoman, AAE43251.1) were used according to the manufacturer's instructions. Both types of luciferases were added to rich LB or minimal MOPS-Glucose media pre-heated at 37° C. At various times during incubation, aliquots of the solutions were collected, supplemented with reagents and mixed with 0.8 pmole of ATP for bioluminescence readings. Immediately after mixing, bioluminescence measurements were performed at 37° C. using an InfinitePro200, TECAN plate reader in a total volume of 12 μL on a 384-wells microtiter plate (Greiner Bio-one, 784076).
# [2] = target: T1, thermostable luciferase (Nipponoluciola cruciata, UniProt P13129, A536K/G484A/G534A/I532L/M501V/N494T/N510T/P452A/P477D/R513K/R519V/S465N/S491H/S509T/T217I/T219I/V239I/V459I/V474L/V478D/V500I); assay type: biochemical
# T1 construct: purchased Kikkoman CheckLite AT100
# Description: FIG. 5. […] The luciferase-luciferin reagent was preincubated 40 min at 37° C. in presence of various antibiotics in LB before the addition of 30 nM ATP (in the absence of bacteria).
# (§1) The classical luciferase was from Molecular Probes (ATP Determination Kit (A22066)). The thermostable luciferase was from “CheckLite AT100” (kikkoman). The Luciferin-luciferase reagents were prepared following manufacturer instructions. Bacteria from exponentially growing cultures (OD600=0.3) were added to each well (60 μl/well) of a black 96-microtiter plate (Greiner Bio-one, 655076) and 20 μl of the luciferin-luciferase reagent solution was added. The microtiter plate was incubated 5 min at 37° C. for reaction with the luciferase to eliminate traces of extracellular ATP. Then 40 μl of antibiotic solution (3 times concentrated) prepared in the culture medium were added. Bioluminescence of each well was monitored for 4 hours under shaking (218 rpm) and at 28 or 37° C., depending on the experiments (see legends of Figures). The reagent stability in presence or absence of antibiotics was checked in control experiments without bacteria but with 4 pmoles of ATP. […]
# Bioluminescence was thus measured after preincubation of luciferase-lucifering reagent with the antibiotics at their maximal concentration used in this study in LB before the addition of 30 nM ATP (in the absence of bacteria).
# [3] = test system: Escherichia coli MG1655; assay: Antibiotic MIC determination (serial twofold dilutions, OD600 during 17 hours at 37° C.); assay type: cell-based; conditions: for MIC: Escherichia coli
# Description: The Minimal Inhibitory Concentration (MIC) of the antibiotics was determined under the same culture conditions as the tests using the ATP assay kit. […] An exponentially growing culture (OD600=0.3) was added to each well (60 μl/well) of a sterile microtiter plate containing the test concentration of antibiotic (40 μl/well). The volume was completed to 120 μl with medium and OD600 nm measurements were performed using a microtiter plate reader (Infinite 200 PRO, TECAN) during 17 hours at 37° C.
# In all the following experiments, the MIC values were measured for each antibiotic with parameters such as temperature, OD600 and equipment identical to those used for the bioluminescence assay.
# [4] = test system: S. aureus USA300; assay: CFU kill assay of stationary phase cells with or without centrifugation; assay type: cell-based, Staphylococcus aureus
# Description: FIG. 4. A. Centrifugation with change for fresh medium prior to aminoglycoside exposure stimulates drug bactericidal effect. S. aureus USA300 in TSB medium with 0.25% glucose was incubated until stationary phase has been reached at 37° C. Cells were either centrifuged at 12 000 rpm for 5 minutes (+) or placed at 37° C. without centrifugation (≠). After centrifugation, pellets were washed with fresh broth and placed at 37° C. Depending on the test, different concentrations of neomycin were added. S. aureus USA300 samples that were centrifuged and washed with fresh broth are more sensitive to neomycin. For instance, bacterial CFU go below the detection threshold (10^2 CFU/ml) at 2 hours for 8 mM and 2 mM concentrations while it takes 2 more hours for the 0.5 mM concentration. Bars represent the standard error from the mean (SEM) calculated on GraphPad Prism version 8.4.1. B. S. aureus USA300 in TSB medium with 0.25% glucose was incubated until stationary phase has been reached at 37° C. Cells were either centrifuged at 12 000 rpm for 5 minutes or placed at 37° C. without centrifugation. After centrifugation, pellets were washed with fresh broth and placed at 37° C. A volume of 100 μL of fresh media with 4 mM of neomycin was added to all the tubes (final concentration at 2 mM), centrifuged or not, 5, 15, 30, 60 and 120 minutes post-centrifugation. Samples were incubated for a total of 2 hours with the neomycin before being washed three times with PBS 1×, diluted and incubated on tryptic soy agar. The next day, colony forming units/mL were counted. Bars represent the standard deviation (SD) calculated on GraphPad Prism version 8.4.3.
# [5] = test system: biofilm of the multidrug-resistant Staphylococcus aureus USA300 strain; assay: Drug dependent ATP release from biofilm; assay type: cell-based; conditions: washed biofilm, 37° C., FIG. 20b
# Description: FIG. 20. Drug dependent ATP release from biofilm of the multidrug-resistant Staphylococcus aureus USA300 strain. A, Control experiment at 37° C. in absence of antibiotic. Biofilms were washed with MOPS medium prior to be exposed to neomycin in the bioluminescent assay. Biofilms were obtained as described in the Examples section and washed twice with MOPS-G medium. Wash solutions were tested for the presence of ATP with the bioluminescence assay. […] Washed biofilms were then tested for ATP release. Signals were present in the first 40 min. This ATP release probably originates from shaking of the biofilm in the plate reader with physical perturbation of the biofilm. B, Biofilm response at 37° C. to drug exposure.
# Biofilms were produced by following standard protocols. Briefly, S. aureus USA300 was incubated overnight in tryptic-soy broth (with 0.25% glucose) at 37° C. with 180 rpm agitation. Wells of a FLUOTRAC™ microplate (sterilized beforehand) were then filled with 150 μl of the inoculated broth previously diluted to obtain average concentrations between 10^5-10^6 CFU/ml. The microplate was covered and incubated at 37° C. for 18 hours. Biofilms were then washed twice with 150 μl of MOPS. 80 μl of the wash solution was not discarded and placed in an adjacent well to observe the quantity of ATP it contained. […]
# [6] = test system: E. coli MG1655 KanR; assay: ATP leakage assay on aminoglycoside resistant strain (KanR, APH(3′)-IIa); assay type: cell-based, Escherichia coli; conditions: MOPS minimal medium (glucose 0.4%), increasing concentrations, 37° C.
# Description: FIG. 7. Absence of ATP leakage with an aminoglycoside resistant strain E. coli MG1655. The resistant strain (MG KanR) contains the gene for expression of the aminoglycoside O-phosphotransferase APH(3′)-IIa. ATP release of resistant (KanR) or non-resistant (WT) MG 1655 E. coli cells exposed in MOPS minimal medium (glucose 0.4%) to increasing concentrations of neomycin at 37° C. ATP leakage was absent for the resistant strain (KanR).
# as §1
# [7] = test system: E. coli; assay: Survival assay (kill curves, CFU) with neomycin; assay type: cell-based, Escherichia coli; conditions: different neomycin concentrations, LB
# [8] = test system: E. coli MG1655 reporter cells; assay type: cell-based, Escherichia coli
# Description: The classical luciferase was from Molecular Probes (ATP Determination Kit (A22066)). The thermostable luciferase was from “CheckLite AT100” (kikkoman). The Luciferin-luciferase reagents were prepared following manufacturer instructions. Bacteria from exponentially growing cultures (OD600=0.3) were added to each well (60 μl/well) of a black 96-microtiter plate (Greiner Bio-one, 655076) and 20 μl of the luciferin-luciferase reagent solution was added. The microtiter plate was incubated 5 min at 37° C. for reaction with the luciferase to eliminate traces of extracellular ATP. Then 40 μl of antibiotic solution (3 times concentrated) prepared in the culture medium were added. Bioluminescence of each well was monitored for 4 hours under shaking (218 rpm) and at 28 or 37° C., depending on the experiments (see legends of Figures). The reagent stability in presence or absence of antibiotics was checked in control experiments without bacteria but with 4 pmoles of ATP. Tests were also performed in 384-microtiter plates (Greiner Bio-one, 784076).
# Aminoglycosides are bactericidal antibiotics causing translational miscoding with lethal consequences for the cell. Leakage of small molecules following an aminoglycoside shock was previously identified by different methods including radiolabelling. Therefore, the inventors investigated the response of live cells to aminoglycoside stress.
# [9] = MG1655, read-out: MIC in MOPS glucose 0.4%, MOPS minimal medium glucose 0.4%, 37° C.
# [10] = MG1655, LB medium, OD600 0.15 final, 37° C., read-out: MIC in LB
# [11] = LB medium, OD600 0.15 final, 37° C.
# T1 sequence (P13129 other isoform, or with tags, fused parts or gaps with the stated changes): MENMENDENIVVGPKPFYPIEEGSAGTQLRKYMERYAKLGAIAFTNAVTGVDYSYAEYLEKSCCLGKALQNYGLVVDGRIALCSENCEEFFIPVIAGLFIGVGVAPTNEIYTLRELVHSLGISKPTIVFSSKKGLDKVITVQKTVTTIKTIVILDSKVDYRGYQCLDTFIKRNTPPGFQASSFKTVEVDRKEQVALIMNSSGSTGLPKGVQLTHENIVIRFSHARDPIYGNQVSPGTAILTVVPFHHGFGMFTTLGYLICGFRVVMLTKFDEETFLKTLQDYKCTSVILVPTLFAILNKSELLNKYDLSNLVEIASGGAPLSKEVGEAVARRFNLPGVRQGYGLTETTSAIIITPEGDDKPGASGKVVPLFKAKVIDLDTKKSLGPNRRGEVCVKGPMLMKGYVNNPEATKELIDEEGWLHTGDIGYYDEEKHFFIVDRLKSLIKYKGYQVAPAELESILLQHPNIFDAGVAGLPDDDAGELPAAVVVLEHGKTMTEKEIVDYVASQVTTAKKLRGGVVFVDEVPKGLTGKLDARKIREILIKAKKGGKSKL
compound,measurement,setting,value
"classical firefly luciferase: firefly luciferase; Molecular Probes ATP determination kit A22066, not thermostable",Loss of activity,"[1]; LB medium, after 12 minutes of incubation",70%
same,Loss of activity,"[1]; minimal MOPS-G medium, in 30 minutes",more than 80%
COc1cc(Cc2cnc(N)nc2N)cc(OC)c1OC [Trimethoprim],Concentration above which the drug inhibits the luciferase reaction,[2],above 200 μg/mL
same,MIC,[3]; [9],6.25 µg/mL
same,MIC,[3]; [10],50 µg/mL
Neomycin,Time at which bacterial CFU go below the detection threshold (10^2 CFU/ml),"[4]; 0.5 mM, samples centrifuged and washed, compared with 8 mM and 2 mM",2 more hours
same,Time at which bacterial CFU go below the detection threshold (10^2 CFU/ml),"[4]; 2 mM, samples centrifuged and washed with fresh broth",2 hours
same,Time at which bacterial CFU go below the detection threshold (10^2 CFU/ml),"[4]; 8 mM, samples centrifuged and washed with fresh broth",2 hours
same,ATP release from biofilm,[5],triggered ATP release
same,ATP leakage,[6],absent
same,Number of colonies forming units (CFU) during the first 90 minutes,[7],remained constant
same,Shape of ATP release trace,"[8]; LB medium, 37° C., FIG. 8",bi-phasic
same,Shape of ATP release trace,"[8]; MOPS minimal medium (glucose 0.4%), FIG. 11",monophasic
same,Lag time before ATP,"[8]; antibiotic at 5.6 μg/mL, LB, 37° C.",48.6 min
same,Lag time before ATP,"[8]; antibiotic at 11.25 μg/mL, LB, 37° C.",42.4 min
same,Lag time before ATP,"[8]; antibiotic at 22.8 μg/mL, LB, 37° C.",16.3 min
same,Lag time before ATP,"[8]; antibiotic at 45.0 μg/mL, LB, 37° C.",12.8 min
same,Lag time before ATP,"[8]; antibiotic at 91.0 μg/mL, LB, 37° C.",9.4 min
same,"Lag before ATP release (shortest, incompressible value)","[8]; highest concentrations tested, LB, 37° C.",about 9.4 min
same,MIC in LB,[3]; [11],22.8 µg/mL
same,MIC in MOPS glucose 0.4%,"[3]; MOPS minimal medium glucose 0.4%, 37° C.",0.8 µg/mL
same,Experimental MIC,"[3]; Mueller Hinton media, EUCAST inoculum",3.12 µg/mL
COc1ccc(C[C@H](N)C(=O)N[C@H]2[C@@H](O)[C@H](n3cnc4c(N(C)C)ncnc43)O[C@@H]2CO)cc1 [Puromycin],Effect on the activity of the bioluminescence assay,"[2]; preincubation with antibiotic in LB, 30 nM ATP, no bacteria, inhibition only at concentration above the MIC",significant inhibition of bioluminescence
same,ATP leakage,"[8]; sub-MIC concentrations, LB, FIG. 9",very weak leakage
same,MIC,[3]; [9],871 µg/mL
same,MIC,[3]; [10],435 µg/mL
same,MIC in LB,[3]; [11],377 µg/mL
